Assay results published in patent US5451518A, “Purified human ceramide-activated protein kinase” (Sloan-Kettering Institute for Cancer Research, priority 1992, dated 1995).
“Also recorded” adds a separate entry of the source.

Key:
EL-4 cells [1] = assay: Sphingomyelin levels in intact EL-4 cells; assay type: cell-based, murine
Procedure: (§1) Time course (FIG. 12A) and dose response (FIG. 12B). Cells were grown to growth arrest (1-1.5×10^6 cells ml^-1) in DME/Ham's F12 medium (1:1, v/v) containing 10% horse serum and for 48 hours [^3 H]choline (1 μCi ml^-1). On the day of an experiment, cells were resuspended back into the same medium at 10×10^6 cells ml^-1 and stimulated with 40 ng ml^-1 IL-1β for the indicated times (FIG. 12A) or for 30 minutes with increasing concentrations of IL-1β (FIG. 12B). Human IL-1β may be obtained using methods well knownto those skilled in the art. Reactions were terminated with CHCl3 :CH3 OH:HCl (100:100:1) containing 10 mM EDTA (82). Lipids in the organic phase extract were dried under N2 and subjected to mild alkaline hydrolysis (0.1M methanolic KOH for 1 hour at 37° C.) to remove glycerophospholipids. Spingomyelin was resolved by thin-layer chromatography (TLC) using CHCl3 :CH3 OH:CH3 COOH:H2 O (60:30:8:5) as solvent, identified by iodine vapor staining, and quantified by liquid scintillation spectrometry. As previously reported, the use of [^3 H]choline as a measure of sphingomyelin content was validated by simultaneous phospholipid phosphorus measurements (62). Each value represents the mean ± SEM of triplicate determinations from four experiments in (FIG. 12A), and one representative of four similar studies performed in triplicate in (FIG. 12B).
The murine thymoma EL-4 cell line is a well-defined IL-1 responsive cell line that expresses functional IL-1 receptors (61, 62). Upon stimulation with IL-1, these cells up-regulate the IL-2 receptor and secrete IL-2 (62). Initial studies were designed to investigate the effects of IL-1β on cellular sphingomyelin content. Cells, grown in Dulbecco's Modified Eagle's (DME)/Ham's F-12 medium containing 10% horse serum and [^3 H]choline (1 μCi ml^-1), were resuspended back into the same medium at 10×10^6 cells ml^-1 and stimulated with IL-1β. IL-1β is commercially available.

EL-4 cells [2] = assay: Ceramide levels in intact EL-4 cells; assay type: cell-based, murine
Procedure: as §1
Cells were stimulated as in FIGS. 12A and 12B with IL-1β (40 ng ml^-1) and ceramide contained within the organic phase extract quantified enzymatically using the E. coli diacylglycerol kinase reaction (57). Lipids were resolved by TLC using CHCl3 :CH3 OH:CH3 COOH (65/15/5) as solvent, autoradiographed and quantified by liquid scintillation spectrometry. Each value represents the mean ± SEM of triplicate determinations from 10 experiments.

[3] = test system: ceramide-activated protein kinase
Procedure: Homogenates were centrifuged at 500×g for 5 minutes to remove nuclei and at 200,000×g for 30 minutes to prepare microsomal membranes. Membranes were resuspended into homogenizing buffer (2.2 μg membrane protein μl^-1). For assay of kinase activity, the reaction mixture contained 20 μl of microsomal membrane, 40 μl EGFR peptide (4 mg ml^-1 in 25 mM Hepes, pH 7.4) and 100 μl buffer (50 mM HEPES, pH 7.4, 20 mM MgCl2) (40). Phosphorylation was initiated at 22° C. by addition of 40 μl [γ-^32 P] ATP (100 μM final concentration) and terminated at the indicated times by addition of 40 μl of 0.5M ATP in 90% formic acid. Phosphorylated peptide was eluted from a C18 Sep pak cartridge (Millipore), lyophilized, and resolved by C18 reverse phase HPLC using a linear gradient of acetonitrile. […] All assays were performed under conditions determined as linear for time and enzyme concentration. Enzyme activity was determined from the percent conversion of substrate to product and the specific radioactivity of [γ-^32 P] ATP. […] Values (mean ± range) represent duplicate determinations from two experiments.
Activity was measured by the transfer of ^32 P from the γ-position of ATP to EGFR peptide (AA 663-681 of the EGFR). The effect of IL-1β on kinase activity was determined using microsomal membranes derived from cells stimulated with IL-1β.

[4] = test system: sphingomyelin (EL-4 nuclei-free supernate); assay: Sphingomyelin levels in EL-4 cell-free system; assay type: biochemical, murine; details: IL-1β, n=10, p<0.005 vs. control
Procedure: (§2) Thereafter, supernates (300 μg incubation^-1 in 25 μl ) were added to a reaction mixture (total volume 250 μl ) as described in FIG. 14. For studies measuring lipid levels, incubations were stopped by extraction of lipids into an organic phase and resolved as described in FIGS. 12A, 12B and 13. For studies measuring kinase activity, incubations contained EGFR peptide and [^32 P]ATP, and phosphorylated peptide was quantified as described in FIG. 14. Background activity was subtracted from each point. Values (mean) represent data from two experiments for sphingomyelin performed in triplicate, three experiments for ceramide performed in triplicate, and five experiments for ceramide-activated protein kinase activity performed in duplicate.
(§3) Early kinetics of activation of a potential signaling system provide some support that the pathway might be involved in the signaling process. However, signal transduction pathways are highly regulated and often interrelated (70). […] To provide additional support for tight coupling of the sphingomyelin pathway to activation of the IL-1β receptor, studies were performed with subcellular fractions derived from EL-4 cells. […] These effects were quantitatively similar to those determined in the intact cells.

[5] = test system: ceramide (EL-4 nuclei-free supernate); assay: Ceramide levels in EL-4 cell-free system; assay type: biochemical, murine; details: IL-1β, n=6, p<0.005 vs. control
Procedure: as §2, §3

[6] = test system: ceramide-activated protein kinase; assay: Ceramide-activated protein kinase activity in EL-4 cell-free system; assay type: biochemical, murine; details: IL-1β
Procedure: as §2, §3

[7] = test system: proline-directed protein kinase activities other than ceramide-activated protein; assay: Cytosolic kinase activity toward EGFR peptide in EL-4 cells; assay type: cell-based, murine
protein kinase C = assay: Protein kinase C activity by phosphorylation of lysine-rich histone in EL-4 cells; assay type: cell-based, murine; details: membrane and cytosolic fractions
EL-4 cells [8] = assay: Phosphatidylcholine content in EL-4 cells; assay type: cell-based, murine; details: IL-1β
[9] = test system: human natural killer-like cell line, YT; assay: Ceramide generation in YT cells; assay type: cell-based; details: preliminary studies
EL4 cells = details: 24 h

IL-1β: Human IL-1β
sphingomyelin content after IL-1β (EL-4 cells [1]; 40 ng ml^-1, 30 minutes, baseline 800±14, mean ± SEM, p<0.005): 648±16 pmol 10^6 cells^-1 | time at which sphingomyelin reduction was detectable (EL-4 cells [1]; IL-1β 40 ng ml^-1): ≤ 2 min | concentration for maximal effect, sphingomyelin (EL-4 cells [1]; IL-1β, 30 minutes): 10 ng/mL | effective concentration, sphingomyelin (EL-4 cells [1]; IL-1β, 30 minutes): 0.01 ng/mL | effective dose (ED50), sphingomyelin hydrolysis (EL-4 cells [1]; IL-1β, 30 minutes): ≈ 2 ng ml^-1 | effect on sphingomyelin (in words) (EL-4 cells [1]; intact EL-4): rapid reduction in sphingomyelin | ceramide response (in words) (EL-4 cells [2]; EL-4, maximally effective concentrations (n=5), SMase 1×10^-3 U ml^-1): elevation in ceramide levels | ceramide content (EL-4 cells [2]; IL-1β, 2 minutes, from 360, p<0.005): 403 pmol 10^6 cells^-1 | maximum ceramide content (EL-4 cells [2]; IL-1β, 15 minutes, from 360): 450 pmol 10^6 cells^-1 | time at which increase in ceramide content was evident (EL-4 cells [2]; IL-1β, n=4): ≤ 30 s | kinase activity after IL-1β ([3]; 10 ng ml^-1, 2 minutes, from 5): 11 pmol per minute per milligram (pmol min^-1 mg^-1) | concentration for maximal effect, kinase activity ([3]; IL-1β): 10 ng/mL | effective concentration, kinase activity ([3]; IL-1β): 0.03 ng/mL | effective dose (ED50), kinase activity ([3]; IL-1β): ≈ 2 ng ml^-1 | time at which increase in kinase activity was detectable ([3]; IL-1β 10 ng ml^-1): 30 s | increase in kinase activity ([3]; IL-1β 10 ng ml^-1, 2 minutes): 2.1 -fold of control | time to maximal kinase activity ([3]; IL-1β 10 ng ml^-1, p<0.005): 2 min | reduction in sphingomyelin content (in words) [4]: rapid reduction in sphingomyelin content; also recorded: detected at i minute | increase in ceramide content (in words) [5]: quantitative increase in ceramide content; also recorded: detected at i minute | ceramide-activated protein kinase activity (in words) [6]: Ceramide-activated protein kinase activity also increased | cytosolic kinase activity (in words) [7]: not enhanced | protein kinase C activity (in words) (protein kinase C): not enhanced in either membrane or cytosolic fractions | phosphatidylcholine content (EL-4 cells [8]): unchanged | generation of ceramide in YT cells [9]: induces rapid generation of ceramide | IL-2 secretion in combination with TPA (in words) (EL4 cells): stimulated secretion maximally | IL-2 secretion, ±TPA (EL4 cells; Table I, TPA 20 ng ml^-1, mean ± range, nd = not detectable): 261 ± 2
